# In patent US10155948B2, “Pharmaceutical composition for preventing or treating diabetic complications and screening method for preventive or therapeutic agent for diabetic complications” (KANGWON NATIONAL UNIVERSITY UNIVERSITY-INDUSTRY COOPERATION …, priority 2016, dated 2018):
# How the values were obtained:
# β-catenin = assay: Visualization of β-catenin in HRECs; assay type: cell-based, human; settings: 50 μM cystamine or 100 nM dasatinib 30 min, 10 ng/ml VEGF 90 min
# Experimental: For visualization of β-catenin, cells were preincubated with inhibitors for 30 min and treated with 10 ng/ml VEGF for 90 min, fixed with 3.7% formaldehyde, and permeabilized with 0.2% Triton X-100. Cells were incubated overnight with a monoclonal anti-3-catenin antibody (1:200, Santa Cruz Biotechnology) at 4° C. Cells were then probed with an FITC-conjugated goat anti-mouse antibody (1:200, Sigma) and visualized using confocal microscopy. Images for making galleries were cropped to a smaller size using Microsoft PowerPoint 2010 software.
# (A) β-catenin was visualized by confocal microscopy. Scale bar, 30 μm. (B) cSrc phosphorylation at Tyr^416 was analyzed by Western blot. (C) In-vitro endothelial cell monolayer permeability assay. Results are expressed as mean±SD from three independent experiments (**p<0.01, ***p<0.001).
# HRECs [1] = assay: In-vitro endothelial cell monolayer permeability assay (FITC-dextran, Transwell); assay type: cell-based, human; settings: 50 μM cystamine, 20 μM MDC or 100 nM dasatinib 30 min, 10 ng/ml VEGF 90 min, p<0.01
# Experimental: In-vitro permeability assay was performed as previously described. HRECs were grown on gelatin-coated inserts (0.4 μm polycarbonate membrane) of Transwell® Permeable Supports (Costar, Corning, N.Y., USA) up to confluence. Approximately 1.0×10^5 cells in 0.5 ml of culture medium were seeded on the upper side of the membrane while 1 ml of culture medium was added to the lower compartment. […] The amount of FITC-dextran that diffused through the endothelial monolayer into the lower chamber was measured using a microplate spectrofluorometer (Molecular Devices, Sunnyvale, Calif., USA).
# (A-C) HRECs were preincubated with 50 μM cystamine (Cys) and 20 μM MDC for 30 min and treated with 10 ng/ml VEGF. […] (C) Adherens junctions were quantitatively analyzed using the peak fluorescence intensities of the histograms at the single-cell level. The results are expressed as mean±SD from three independent trials. […] The amount of FITC-dextran that diffused to the lower chamber was measured by a microplate spectrofluorometer (n=3) (**p<0.01).
# (A) β-catenin was visualized by confocal microscopy. […] (B) cSrc phosphorylation at Tyr^416 was analyzed by Western blot. […] Results are expressed as mean±SD from three independent experiments (**p<0.01, ***p<0.001).
# HRECs [2] = assay: Visualization of actin filaments (stress fiber formation) in HRECs; assay type: cell-based, human; settings: for VEGF-activated stress fiber formation: HRECs, 50 μM cystamine or 20 μM MDC 30 min, 10 ng/ml VEGF; for VEGF-induced stress fiber formation: summary statement, conditions not given
# Experimental: (§1) Actin filaments and VE-cadherin were visualized as previously described. For visualization of actin filaments, cells were treated with 10 ng/ml VEGF for 1 hr at 37° C., fixed with 3.7% formaldehyde, and permeabilized with 0.2% Triton X-100. […] For visualization of VE-cadherin, cells were preincubated with the TGase2 inhibitors for 30 min and treated with 10 ng/ml VEGF for 90 min at 37° C. Following fixation and permeabilization, cells were incubated overnight with a monoclonal anti-VE-cadherin antibody (1:200, Santa Cruz Biotechnology) at 4° C. Cells were then probed with an FITC-conjugated goat anti-mouse antibody (1:200, Sigma) and VE-cadherin was visualized using confocal microscopy. Adherens junctions are represented by histograms of VE-cadherin as indicated by dotted lines and were quantitatively analyzed using peak fluorescence intensities of the histograms at the single-cell level for 10 randomly selected cells per experiment.
# (§2) (A-C) HRECs were preincubated with 50 μM cystamine (Cys) and 20 μM MDC for 30 min and treated with 10 ng/ml VEGF. Stress fibers and VE-cadherin were stained and visualized by confocal microscopy as described in Research Design and Methods (n=3) ((A) Representative images of stress fibers. Scale Bar, 30 μm. (B) Representative images of VE-cadherin. Scale Bar, 10 μm). Adherens junctions are represented by histograms of VE-cadherin as indicated by dotted lines. (C) Adherens junctions were quantitatively analyzed using the peak fluorescence intensities of the histograms at the single-cell level. The results are expressed as mean±SD from three independent trials. (D) In-vitro endothelial cell monolayer permeability assay. HRECs on inserts of Transwell® Permeable Supports were incubated with 50 μM cystamine and 20 μM MDC for 30 min and treated with 10 ng/mL VEGF for 90 min. The amount of FITC-dextran that diffused to the lower chamber was measured by a microplate spectrofluorometer (n=3) (**p<0.01).
# (§3) HRECs were transfected with 100 nM human TGase2-specific siRNA (TGase2 siRNA) or 100 nM control (Ctrl) siRNA. Endothelial cells were treated with 10 ng/ml VEGF and subjected to the confocal microscopic visualization of stress fibers (A) and VE-cadherin (B), as described in Research Design and Methods (n=3). (A) TGase2 siRNA inhibition of VEGF-induced formation of stress fibers. Scale bar, 30 μm. (B) Representative images of VE-cadherin and adherens junctions represented by VE-cadherin histograms. Scale bar, 10 μm. (C) Adherens junctions were quantitatively analyzed using peak fluorescence intensities of the histograms at the single-cell level. Results are expressed as mean±SD from three independent experiments (***p<0.001).
# c-Src = c-Src phosphorylation (Tyr416) by Western blot in HRECs; assay type: cell-based, human; settings: 50 μM cystamine or 100 nM dasatinib 30 min, 10 ng/ml VEGF 15 min
# Experimental: Cells were incubated with an ice-cold lysis buffer containing 50 mM Tris-HCl (pH 7.5), 1% Triton X-100, 150 mM NaCl, 1 mM EDTA, 0.1 mM phenylmethylsulfonyl fluoride (PMSF), 10 μg/ml aprotinin, and 10 μg/ml leupeptin for 30 min. Cell lysates were separated by SDS-PAGE and transferred to polyvinylidene fluoride membranes. The membranes were blocked with 5% skim milk in TBS with 0.1% Tween for 1 hr at room temperature (RT). […] Protein bands were visualized using a chemiluminescent substrate (Pierce, Rockford, Ill.).
# VE-cadherin = assay: Visualization of VE-cadherin (adherens junction disruption) in HRECs; assay type: cell-based, human; settings: for VEGF-induced VE-cadherin breakdown: HRECs, 50 μM cystamine or 20 μM MDC 30 min, 10 ng/ml VEGF; for VEGF-induced VE-cadherin disruption: summary statement, conditions not given
# Experimental: as §1, §2, §3
# TGase = molecular target: T1, TGase (Homo sapiens, UniProt P21980); assay: VEGF-induced TGase activation in HUVECs; assay type: cell-based
# T1 construct: endogenous in cells; host or cells: HUVECs (isolated in house)
# T1 sequence (P21980 1-687): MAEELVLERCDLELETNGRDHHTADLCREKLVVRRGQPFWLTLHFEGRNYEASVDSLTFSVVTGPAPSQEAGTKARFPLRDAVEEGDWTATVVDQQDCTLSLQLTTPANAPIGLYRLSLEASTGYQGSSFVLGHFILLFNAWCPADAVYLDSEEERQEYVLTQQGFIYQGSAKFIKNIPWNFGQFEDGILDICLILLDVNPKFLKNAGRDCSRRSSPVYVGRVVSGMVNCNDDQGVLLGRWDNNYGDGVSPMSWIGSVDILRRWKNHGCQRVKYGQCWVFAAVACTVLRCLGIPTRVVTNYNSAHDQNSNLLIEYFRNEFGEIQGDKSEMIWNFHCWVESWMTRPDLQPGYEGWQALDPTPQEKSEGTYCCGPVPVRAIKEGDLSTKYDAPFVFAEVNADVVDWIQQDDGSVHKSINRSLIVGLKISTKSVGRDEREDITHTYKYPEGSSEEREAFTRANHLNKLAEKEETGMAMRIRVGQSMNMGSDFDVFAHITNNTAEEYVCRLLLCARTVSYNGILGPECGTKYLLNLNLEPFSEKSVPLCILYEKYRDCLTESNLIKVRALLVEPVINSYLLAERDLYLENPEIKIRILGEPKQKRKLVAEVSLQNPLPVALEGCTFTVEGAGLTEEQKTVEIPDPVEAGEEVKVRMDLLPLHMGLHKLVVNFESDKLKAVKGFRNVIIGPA
# Experimental: (§4) Both respectively were grown on 2% gelatin-coated plates in a M199 medium supplemented with 20% fetal bovine serum (FBS), 3 ng/ml basic fibroblastic growth factor, 5 units/ml heparin, 100 units/ml penicillin, and 100 μg/ml streptomycin. For experiments, cells were incubated for 6 hrs in a low-serum medium supplemented with 1% FBS and antibiotics.
# In-situ Tgase transamidating activity was determined via confocal microscopic assay according to a previously known procedure. In brief, cells were incubated with 1 mM 5-(biotinamido)pentylamine (BAPA) for 1 hr at 37° C., fixed with 3.7% formaldehyde in PBS for 30 min, and permeabilized with 0.2% Triton X-100 in PBS for 30 min. After incubation with a blocking solution of 2% BSA in 20 mM Tris (pH 7.6), 138 mM NaCl, and 0.1% Tween 20 for 30 min, cells were treated with Cy3-conjugated streptavidin (1:200, v/v) in the blocking solution for 1 hr. Single-cell fluorescence intensities of stained cells were determined using confocal microscopy for 10 randomly selected cells per test. TGase activities were determined by comparing average fluorescence intensities of treated cells with those of control cells (expressed as multiples thereof).
# HUVECs = assay: VEGF-induced ROS generation in HUVECs; assay type: cell-based, human
# Experimental: as §4
# Intracellular ROS generation was determined using 2′,7′-dichlorodihydrofluorescein diacetate (H2DCFDA, Molecular Probes, Eugene, Oreg.) staining as previously described. Cells were pretreated with inhibitors for 30 min and co-incubated with 10 ng/ml of VEGF and 10 μM H2DCFDA in low-serum media (phenol red-free) for 10 min. Labeled cells were immediately analyzed using confocal microscopy (Fluoview-300, Olympus). Single-cell fluorescence intensities were determined for 10 randomly selected cells per test. Intracellular ROS levels were determined by comparing average fluorescence intensities of treated cells with those of control cells (expressed as multiples thereof).
# TGase2 = molecular target: T2, TGase2 (Homo sapiens, UniProt P21980); settings: protein chip-based, dose-dependent
# T2 sequence (P21980 1-687): T1 sequence (P21980 1-687)
VEGF-enhanced TGase activation (TGase),TGase2 activity (TGase2),SMILES,VEGF-induced β-catenin breakdown (β-catenin),VEGF-increased in-vitro endothelial permeability (HRECs [1]),VEGF-activated stress fiber formation (HRECs [2]),VEGF-induced c-Src phosphorylation (Tyr416) (c-Src),VEGF-induced VE-cadherin breakdown (VE-cadherin),VEGF-enhanced ROS generation (HUVECs),VEGF-induced stress fiber formation (HRECs [2]),VEGF-induced VE-cadherin disruption (VE-cadherin)
–,–,NCCSSCCN [cystamine],inhibited,inhibited,prevented,prevented,inhibited,–,–,–
inhibited,inhibited,NCCS [cysteamine],–,–,–,–,–,inhibited,prevented,prevented
–,–,"CN(C)c1cccc2c(S(=O)(=O)NCCCCCN)cccc12 [MDC, monodansylcadaverine]",–,inhibited,prevented,–,inhibited,–,–,–
inhibited,inhibited,NCCc1ccc(O)c(O)c1 [dopamine],–,–,–,–,–,inhibited,prevented,prevented
